The values below come from ChEMBL document CHEMBL3046632 (Med Chem Res, 2004).

Test [1] has as its target Dopamine receptor D2 and D3 (Rattus norvegicus, UniProt P19020+P61169). The test is described as follows: Agonist activity at Rattus norvegicus (rat) dopamine D2/D3 receptor transfected in african green monkey COS7 cells assessed as inhibition of forskolin-stimulated adenylyl cyclase activity after 10 min. The test is classed as functional, cell-based. The following applies: cos-7.

Another test concerns the target D(2) dopamine receptor (Rattus norvegicus, UniProt P61169). Kind of test: Agonist activity at Rattus norvegicus (rat) dopamine D2 receptor transfected in african green monkey COS7 cells assessed as inhibition of forskolin-stimulated adenylyl cyclase activity after 10 min. The test is classed as functional, cell-based, COS-7.
In another test the target is D(3) dopamine receptor (Rattus norvegicus, UniProt P19020). Kind of test: biochemical.
Sequence of D(3) dopamine receptor (P19020 whole entry): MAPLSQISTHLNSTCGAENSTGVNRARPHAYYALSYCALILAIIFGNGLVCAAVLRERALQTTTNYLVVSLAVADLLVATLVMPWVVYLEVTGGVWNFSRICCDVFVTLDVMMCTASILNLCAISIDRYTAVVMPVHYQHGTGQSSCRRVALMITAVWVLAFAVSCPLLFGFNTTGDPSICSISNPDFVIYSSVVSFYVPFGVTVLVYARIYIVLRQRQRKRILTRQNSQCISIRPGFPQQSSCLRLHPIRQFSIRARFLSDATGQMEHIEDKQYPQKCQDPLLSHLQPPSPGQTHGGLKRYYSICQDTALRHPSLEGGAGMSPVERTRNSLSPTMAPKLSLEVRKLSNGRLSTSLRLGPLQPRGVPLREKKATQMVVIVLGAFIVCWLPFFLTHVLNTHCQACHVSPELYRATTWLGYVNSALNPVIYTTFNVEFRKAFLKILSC

Sequence of D(2) dopamine receptor (P61169 whole entry): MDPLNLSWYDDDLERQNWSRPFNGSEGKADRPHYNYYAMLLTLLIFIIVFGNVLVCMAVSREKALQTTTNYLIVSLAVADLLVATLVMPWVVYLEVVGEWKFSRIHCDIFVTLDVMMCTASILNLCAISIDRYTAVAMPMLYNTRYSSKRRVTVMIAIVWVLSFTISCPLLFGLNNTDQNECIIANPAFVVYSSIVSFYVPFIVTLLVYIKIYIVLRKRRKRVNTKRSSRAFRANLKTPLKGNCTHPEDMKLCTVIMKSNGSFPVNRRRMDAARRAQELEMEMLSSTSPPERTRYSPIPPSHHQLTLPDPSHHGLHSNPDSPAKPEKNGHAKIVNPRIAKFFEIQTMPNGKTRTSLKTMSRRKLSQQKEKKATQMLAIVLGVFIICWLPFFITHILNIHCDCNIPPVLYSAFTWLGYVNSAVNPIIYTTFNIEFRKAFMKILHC

With `CCCN1CCO[C@@H]2c3cc(C(N)=O)ccc3CC[C@H]21` (relative stereo), the values for the concentration giving a half-maximal response (EC50) (in test [1]; on D(2) dopamine receptor) were 1.5 nM and 49.5 nM, respectively. The concentration for half-maximal inhibition (IC50) (commonly the concentration needed to halve the response being measured) on D(3) dopamine receptor amounted to 4.13 nM.

As to `CCCN[C@H]1CCc2nc(N)sc2C1` [PRAMIPEXOLE], on D(3) dopamine receptor, the IC50 is 7.8 nM.

`CCCN(CCC)CCc1cccc2c1CC(=O)N2` [ROPINIROLE]: the EC50 (usually the concentration needed to bring the measured effect to its halfway point) on D(2) dopamine receptor was 75.5 nM.

`N#Cc1ccc2c(c1)[C@H]1CN(CCCCNC(=O)c3ccc(-c4ccccc4)cc3)C[C@@H]1CO2`: the inhibition constant Ki (as a rule, a dissociation constant, usually derived from enzyme kinetics or from competition with a known ligand) at D(3) dopamine receptor worked out at 2.42 nM.
